Earlier results, collected in PubChem BioAssay AID1259409 (Chemical Carcinogenesis Research Information System (CCRIS), 2018).

Tested on: rodent chemically induced tumor inhibition, incidence and multiplicity
Experiment: CCRIS tumor inhibitor studies

Compound: CC(Cc1ccc(O)c(O)c1)C(C)Cc1ccc(O)c(O)c1 (stereo unspecified)
- tumour outcome (control, treated, inhibition, significance) (Carcinogen: 7,12-DIMETHYLBENZ[A]ANTHRACENE, 57-97-6, Dose [Inhibitor]: 0, 10 UMOL IN 0.2 ML ACETONE 1/D FOR 7 D BEGINNING 7 D PRIOR TO CARCINOGEN DOSE (STUDY DURATION: 17 WK), Route [Inhibitor]: DERMAL, Species: RAT, Strain/Sex: SENCAR/FEMALE, Target Tissue: Type of Lesion: SKIN: TUMOR, Dose [Carcinogen]: 40 NMOL IN 0.2 ML ACETONE ONCE, Promoter: 12-0-TETRADECANOYLPHORBOL-13-ACETATE, 16561-29-8): 100%, 100%, 0%, not significant
- tumour outcome (control, treated, inhibition, significance) (Carcinogen: 7,12-DIMETHYLBENZ[A]ANTHRACENE, 57-97-6, Dose [Inhibitor]: 0, 10 UMOL IN 0.2 ML ACETONE 2/WK FOR 16 WK APPLIED 30 MIN PRIOR TO PROMOTER DOSES (STUDY DURATION: 17 WK), Route [Inhibitor]: DERMAL, Species: RAT, Strain/Sex: SENCAR/FEMALE, Target Tissue: Type of Lesion: SKIN: TUMOR, Dose [Carcinogen]: 40 NMOL IN 0.2 ML ACETONE ONCE, Promoter: 12-0-TETRADECANOYLPHORBOL-13-ACETATE, 16561-29-8): 100%, 85%, 15%, not calculated
- tumour outcome (control, treated, inhibition, significance) (Carcinogen: 7,12-DIMETHYLBENZ[A]ANTHRACENE, 57-97-6, Dose [Inhibitor]: 30 UMOL APPLIED 30-40 MIN BEFORE EACH TPA TREATMENT AND CONCURRENTLY WITH TPA (STUDY DURATION: 18 WK), Route [Inhibitor]: DERMAL, Species: MOUSE, Strain/Sex: CD-1/FEMALE, Target Tissue: Type of Lesion: SKIN: PAPILLOMA, Dose [Carcinogen]: 200 NMOL ONCE, Promoter: 12-O-TETRADECANOYLPHORBOL-13-ACETATE, 16561-29-8): 96%, 50%, 48%, not calculated
- tumour outcome (control, treated, inhibition, significance) (Carcinogen: DIETHYLNITROSAMINE, 55-18-5, Dose [Inhibitor]: 0, 1 MG/D IN 0.2 ML CORN OIL 3/WK FOR 16 WKS BEGINNING POST CARCINOGEN DOSE (STUDY DURATION: 24 WKS), Route [Inhibitor]: GAVAGE, Species: MOUSE, Strain/Sex: SWISS/MALE, Target Tissue: Type of Lesion: KIDNEY: RENAL CELL TUMOR, Dose [Carcinogen]: 100 MG/KG BW IN SALINE ONCE, Promoter: FERRIC NITRILOTRIACETATE, 16448-54-7): 68%, 20%, 71%, not calculated
- tumour outcome (control, treated, inhibition, significance) (Carcinogen: DIETHYLNITROSAMINE, 55-18-5, Dose [Inhibitor]: 0, 2 MG/D IN 0.2 ML CORN OIL 3/WK FOR 16 WK BEGINNING POST CARCINOGEN DOSE (STUDY DURATION:24 WKS), Route [Inhibitor]: GAVAGE, Species: MOUSE, Strain/Sex: SWISS/MALE, Target Tissue: Type of Lesion: KIDNEY: RENAL CELL TUMOR, Dose [Carcinogen]: 100 MG/KG BW IN SALINE ONCE, Promoter: FERRIC NITRILOTRIACETATE, 16448-54-7): 68%, 16%, 76%, not calculated
- tumour outcome (control, treated, inhibition, significance) (Carcinogen: N-BUTYL-N-(4-HYDROXYBUTYL)NITROSAMINE, 3817-11-6, Dose [Inhibitor]: 0, 0.1% IN DIET CONCURRENT WITH PROMOTER BEGINNING POST CARCINOGEN TREATMENT AND CONTINUING FOR 36 WK (STUDY DURATION: 4, Route [Inhibitor]: ORAL, Species: RAT, Strain/Sex: F344/MALE, Target Tissue: Type of Lesion: URINARY BLADDER: CARCINOMA, Dose [Carcinogen]: 0.05% IN DRINKING WATER FOR 4 WK, Promoter: SODIUM SACCHARIN, 128-44-9): 2/23 (9%), 1/22 (5%), 44%, not significant
- tumour outcome (control, treated, inhibition, significance) (Carcinogen: N-BUTYL-N-(4-HYDROXYBUTYL)NITROSAMINE, 3817-11-6, Dose [Inhibitor]: 0, 0.1% IN DIET CONCURRENT WITH PROMOTER BEGINNING POST CARCINOGEN TREATMENT AND CONTINUING FOR 36 WK (STUDY DURATION: 4, Route [Inhibitor]: ORAL, Species: RAT, Strain/Sex: F344/MALE, Target Tissue: Type of Lesion: URINARY BLADDER: PAPILLOMA, Dose [Carcinogen]: 0.05% IN DRINKING WATER FOR 4 WK, Promoter: SODIUM SACCHARIN, 128-44-9): 5/23 (22%), 0/22 (0%), 100%, p<0.05

Compound: C[C@H]1O[C@@H](O[C@H]2[C@@H](O)C[C@H](O[C@H]3[C@@H](O)C[C@H](O[C@H]4CC[C@@]5(C)[C@H](CC[C@@H]6[C@@H]5CC[C@]5(C)[C@@H](C7=CC(=O)OC7)CC[C@]65O)C4)O[C@@H]3C)O[C@@H]2C)C[C@H](O)[C@@H]1O
- tumour outcome (control, treated, inhibition, significance) (Carcinogen: 4-NITROQUINOLINE-N-OXIDE, 56-57-5, Dose [Inhibitor]: 0, 0.25 MG/100 ML IN DRINKING WATER FOR 20 WK BEGINNING 5 WK POST CARCINOGEN DOSE (STUDY DURATION: 25 WK), Route [Inhibitor]: ORAL, Species: MOUSE, Strain/Sex: ICR/FEMALE, Target Tissue: Type of Lesion: LUNG: TUMOR, Dose [Carcinogen]: 0.3 MG ONCE, Promoter: GLYCEROL, 56-81-5): 100%, 53%, 47%, not calculated
- tumour outcome (control, treated, inhibition, significance) (Carcinogen: 7,12-DIMETHYLBENZ[A]ANTHRACENE, 57-97-6, Dose [Inhibitor]: 0, 85 NMOL IN ACETONE 2/WK 1 HR PRIOR TO EACH PROMOTER DOSE FOR 20 WK (STUDY DURATION: 21 WK), Route [Inhibitor]: DERMAL, Species: MOUSE, Strain/Sex: ICR/FEMALE, Target Tissue: Type of Lesion: SKIN: PAPILLOMA, Dose [Carcinogen]: 100 UG IN ACETONE ONCE, Promoter: 12-O-TETRADECANOYLPHORBOL-13-ACETATE, 16561-29-8): 100%, 80%, 20%, not calculated

Compound: NCC(CC(=O)O)c1ccc(Cl)cc1 (stereo unspecified)
- tumour outcome (control, treated, inhibition, significance) (Carcinogen: N-METHYL-N'-NITRO-N-NITROSOGUANIDINE, 70-25-7, Dose [Inhibitor]: 0, 4 MG/KG IN NACL INJECTED 1/2 D FOR DURATION OF STUDY BEGINNING 1 WK POST CARCINOGEN DOSE (STUDY DURATION: 52 WK), Route [Inhibitor]: INTRAPERITONEAL, Species: RAT, Strain/Sex: WISTAR/MALE, Target Tissue: Type of Lesion: STOMACH: ADENOCARCINOMA, Dose [Carcinogen]: 50 UG/ML IN DRINKING WATER FOR 25 WK, Promoter: NONE USED): 13/19 (68%), 5/20 (25%), 63%, not calculated
- tumour outcome (control, treated, inhibition, significance) (Carcinogen: N-METHYL-N'-NITRO-N-NITROSOGUANIDINE, 70-25-7, Dose [Inhibitor]: 0, 8 MG/KG BW 1/2 D FOR 25 WK BEGINNING POST CARCINOGEN TREATMENT (STUDY DURATION: 52 WK), Route [Inhibitor]: SUBCUTANEOUS, Species: RAT, Strain/Sex: WISTAR/MALE, Target Tissue: Type of Lesion: STOMACH: TUMOR, Dose [Carcinogen]: 50 UG/ML IN DRINKING WATER FOR 25 WK, Promoter: NONE USED): 19/20 (95%), 10/20 (50%), 47%, p<0.001
- tumour outcome (control, treated, inhibition, significance) (Carcinogen: N-METHYL-N'-NITRO-N-NITROSOGUANIDINE, 70-25-7, Dose [Inhibitor]: 0, 8 MG/KG IN NACL INJECTED 1/2 D FOR DURATION OF STUDY BEGINNING 1 WK POST CARCINOGEN DOSE (STUDY DURATION: 52 WK), Route [Inhibitor]: INTRAPERITONEAL, Species: RAT, Strain/Sex: WISTAR/MALE, Target Tissue: Type of Lesion: STOMACH: ADENOCARCINOMA, Dose [Carcinogen]: 50 UG/ML IN DRINKING WATER FOR 25 WK, Promoter: NONE USED): 13/19 (68%), 5/18 (28%), 59%, not calculated
- tumour outcome (control, treated, inhibition, significance) (Carcinogen: N-METHYL-N'-NITRO-N-NITROSOGUANIDINE, 70-25-7, Dose [Inhibitor]: 0, 8 MG/KG/BW SUSPENSION IN OLIVE OIL 1/2 D BEGINNING POST CARCINOGEN TREATMENT AND CONTINUING FOR DURATION OF STUDY (ST, Route [Inhibitor]: SUBCUTANEOUS, Species: RAT, Strain/Sex: WISTAR/MALE, Target Tissue: Type of Lesion: STOMACH: ADENOCARCINOMA, Dose [Carcinogen]: 50 UG/ML IN DRINKING WATER FOR 25 WK, Promoter: NONE USED): 16/20 (80%), 8/20 (40%), 50%, p<0.05

Compound: CC(O)C(=O)O (stereo unspecified)
- outcome (Carcinogen: 1,2-DIMETHYLHYDRAZINE, 540-73-8, Dose [Inhibitor]: 0, 3.2 G/L IN DRINKING WATER FOR DURATION OF STUDY (STUDY DURATION: 34 WK), Route [Inhibitor]: ORAL, Species: RAT, Strain/Sex: SPRAGUE-DAWLEY/MALE, FEMALE, Target Tissue: Type of Lesion: COLON: TUMOR, Dose [Carcinogen]: 21 MG/KG 1/WK FOR 18 WK, Promoter: NONE USED): 28/29 (97%), 18/28 (64%), not calculated

Compound: CC1=C(/C=C/C(C)=C/C=C/C(C)=C\C(=O)NCCCCO)C(C)(C)CCC1
- tumour outcome (control, treated, inhibition, significance) (Carcinogen: N-BUTYL-N-(4-HYDROXYBUTYL)NITROSAMINE, 3817-11-6, Dose [Inhibitor]: 1.5 MMOL/KG DIET DAILY FOR 133 D STARTING ONE WK AFTER THE FINAL CARCINOGEN DOSE (STUDY DURATION: 190 D), Route [Inhibitor]: ORAL, Species: MOUSE, Strain/Sex: BDF/MALE, Target Tissue: Type of Lesion: URINARY BLADDER: TRANSITIONAL CELL CARCINOMA, Dose [Carcinogen]: 7.5 MG 1/WK FOR 8 WK, Promoter: NONE USED): 21/100 (21%), 17/100 (17%), 20%, not significant
- tumour outcome (control, treated, inhibition, significance) (Carcinogen: N-BUTYL-N-(4-HYDROXYBUTYL)NITROSAMINE, 3817-11-6, Dose [Inhibitor]: 1.5 MMOL/KG IN DIET FOR 133 D STARTING 1 WK AFTER LAST CARCINOGEN DOSE (STUDY DURATION: 190 D), Route [Inhibitor]: ORAL, Species: MOUSE, Strain/Sex: DBF1/MALE, Target Tissue: Type of Lesion: URINARY BLADDER: TRANSITIONAL CELL CARCINOMA, Dose [Carcinogen]: 7.5 MG 1/WK FOR 8 WK, Promoter: NONE USED): 21/100 (21%), 17/100 (17%), 19%, not significant
